{"source": "patent US20090182035A1", "about": "“USE OF A COMBINATION OF OLOPATADINE AND CILOMILAST TO TREAT NON-INFECTIOUS RHINITIS AND ALLERGIC CONJUNCTIVITIS” (Alcon Research, Ltd., priority 2007, published 2009)", "key": {"[1]": {"system": "Guinea Pig Model of Passive Conjunctival Anaphylaxis", "assay": "Passive conjunctival anaphylaxis, acute phase clinical score of conjunctivitis", "type": "in vivo", "conditions": "0.1% topical 20 μL drop 60 min prior to ovalbumin challenge, scored 30 min after challenge; for Clinical Score Mean: total score 0 to 10, groups of six; for Clinical Score % Inhibition: versus vehicle only, * P < 0.05", "experimental": "(§1) Drugs were prepared in standard ophthalmic suspension vehicle and allowed to vortex overnight. Cilomilast and olopatadine were prepared in the same drop by preparing separate 0.2% formulations and then combining them 50:50 to yield a 0.1% concentration of each drug. In groups where cilomilast and olopatadine were given in consecutive drops, olopatadine was applied first followed 5 minutes later by cilomilast. All topical drops were administered as a single 20 μL application. Guinea pigs (male Hartley outbred, 250-300 g) were divided into groups of six. Animals were passively sensitized to ovalbumin by a single subconjunctival injection to the right eye of 10 μL of undiluted anti-ovalbumin guinea pig serum (antiserum). One group was injected with saline only. Twenty-four hours after sensitization all groups were topically challenged with 0.5 mg of ovalbumin in saline to the right eye. Animals were pre-treated with drug or vehicle 60 minutes prior to challenge. Thirty minutes after topical challenge each animal was scored by a masked observer for clinical signs of conjunctivitis, redness/congestion, swelling, and tearing/discharge, with a total score of 0 to 10. Animals were dosed a second time with drug or vehicle 8 hours after challenge. Animals were euthanized 24 hours after challenge and conjunctivae were collected and assayed for eosinophil peroxidase (EPO) activity, an indirect marker of tissue eosinophil concentration. Briefly, tissue samples were weighed frozen, then mechanically homogenized in 50 mM HEPES buffer, pH 6.5, containing 0.5% cetyltrimethylammonium chloride and 6 mM KBr. Homogenates were freeze-thawed three times and sonicated."}, "[2]": {"system": "eosinophil peroxidase (EPO) activity", "assay": "Passive conjunctival anaphylaxis, eosinophil peroxidase (EPO) activity in conjunctivae (allergic inflammation)", "type": "in vivo, guinea pig", "conditions": "0.1% topical 20 μL drop 60 min prior to and 8 hours after challenge; for EPO Activity % Inhibition: conjunctivae 24 hours after challenge, versus vehicle only, * P < 0.05; for EPO Activity Mean: conjunctivae collected 24 hours after challenge", "experimental": "as §1"}}, "data": [{"smiles": "COc1ccc([C@]2(C#N)CC[C@@H](C(=O)O)CC2)cc1OC1CCCC1", "note": "[Cilomilast]", "values": [{"measurement": "Clinical Score Mean", "setting": "[1]", "result": 4.2}, {"measurement": "Clinical Score % Inhibition", "setting": "[1]", "result": 37.5, "unit": "%"}, {"measurement": "EPO Activity % Inhibition", "setting": "[2]", "result": "62.8* %"}, {"measurement": "EPO Activity Mean", "setting": "[2]", "result": 582.26, "unit": "ng EPO/mg tisue"}]}, {"smiles": "CN(C)CC/C=C1/c2ccccc2COc2ccc(CC(=O)O)cc21", "note": "[Olopatadine]", "values": [{"measurement": "Clinical Score Mean", "setting": "[1]", "result": 2.2}, {"measurement": "Clinical Score % Inhibition", "setting": "[1]", "result": "67.5* %"}, {"measurement": "EPO Activity % Inhibition", "setting": "[2]", "result": 15.8, "unit": "%"}, {"measurement": "EPO Activity Mean", "setting": "[2]", "result": 1320.23, "unit": "ng EPO/mg tisue"}]}]}
